Source: EP4596574A1, “GLP-1/GCG/GIP TRIPLE-RECEPTOR AGONIST AND USE THEREOF” (Sunshine Lake Pharma Co., Ltd., priority 2022, dated 2024)
Marks after values point to notes of the source that are not given here.

Experiments:
[1] = target: T1, GLP-1R (Homo sapiens, UniProt P43220); test: In vitro cell activity, cAMP production in HEK293 cells expressing GLP-1R; format: cell-based
T1 construct: expressed in transfected cells; host or cells: HEK293 (HEK293-GLP-1R)
Method in brief: (§1)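 HEK293 transfectants, 4×10^5 cells/mL, 384-well. Detection: cAMP-d2 + anti-cAMP cryptate 1:1, RT 1 h dark or 4 °C o/n. Read 665/620 nm; 4-parameter nonlinear fit → EC50.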

[2] = target: T2, GCGR (Homo sapiens, UniProt P47871); test: In vitro cell activity, cAMP production in HEK293 cells expressing GCGR; format: cell-based
T2 construct: expressed in transfected cells; host or cells: HEK293 (HEK293-GCGR)
Method in brief: as §1

[3] = target: T3, GIPR (Homo sapiens, UniProt P48546); test: In vitro cell activity, cAMP production in HEK293 cells expressing GIPR; format: cell-based
T3 construct: expressed in transfected cells; host or cells: HEK293 (HEK293-GIPR)
T3 sequence (P48546 22-466): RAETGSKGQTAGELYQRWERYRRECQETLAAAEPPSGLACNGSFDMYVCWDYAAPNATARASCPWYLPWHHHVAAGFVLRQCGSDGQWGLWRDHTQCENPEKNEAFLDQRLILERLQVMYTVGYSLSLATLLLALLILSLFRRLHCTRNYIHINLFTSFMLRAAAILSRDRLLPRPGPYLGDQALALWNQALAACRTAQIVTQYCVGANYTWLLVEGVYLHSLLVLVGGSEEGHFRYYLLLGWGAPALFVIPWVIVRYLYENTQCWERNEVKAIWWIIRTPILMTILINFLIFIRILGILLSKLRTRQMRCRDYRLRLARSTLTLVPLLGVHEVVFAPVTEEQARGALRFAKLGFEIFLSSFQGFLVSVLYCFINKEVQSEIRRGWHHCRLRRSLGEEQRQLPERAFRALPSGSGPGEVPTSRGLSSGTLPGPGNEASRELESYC
Method in brief: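 HEK293 cells expressing human GIPR, thawed and diluted to 4×10^5 cells/mL, are stimulated with test compound. cAMP is measured by HTRF competition between cAMP-d2 and anti-cAMP cryptate. EC50 comes from a four-parameter nonlinear fit of signal ratio against concentration.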

[4] = Glucose tolerance assessment in normal C57BL/6 mice (Example 5); format: in vivo; conditions: for Blood glucose level (mM) 15 min / Blood glucose level (mM) 30 min / Blood glucose level (mM) 60 min / Blood glucose level (mM) 90 min / Blood glucose level (mM) 0 min / AUC0-90 min: 3 nmol/kg s.c. single dose, 24 h after administration; for Blood glucose level (mM) 15 min: 15 min after 2 g/kg glucose i.p.; for Blood glucose level (mM) 30 min: 30 min after 2 g/kg glucose i.p.; for Blood glucose level (mM) 60 min: 60 min after 2 g/kg glucose i.p.; for Blood glucose level (mM) 90 min: 90 min after 2 g/kg glucose i.p.; for Blood glucose level (mM) 0 min: basal before 2 g/kg glucose i.p.; for AUC0-90 min: blood glucose AUC, 2 g/kg glucose i.p.
Method: Twelve hours after the single administration, the animals were fasted for 12 hours and had free access to water. Blood was collected from the tail vein to determine the basal blood glucose level of each group of animals, and then 2 g/kg glucose solution was injected intraperitoneally. Blood glucose was tested at 15, 30, 60, and 90 min after glucose administration. The blood glucose concentration-time curve was drawn according to the blood glucose values measured at different time points, and the AUC0~90min of each dose group was calculated as shown in Table 5 and Figure 2. Table 5: Effects of single administration of HEC-PT86, HEC-PT96, HEC-PT112, HEC-PT113, HEC-PT114, and HEC-PT119 on glucose tolerance in normal C57 mice 24 h after administration

[5] = Long-term repeated administration in diet-induced obese C57BL/6 mice (DIO); format: in vivo, C57/BL6 mice
Text: Experimental methods: C57/BL6 mice were randomly divided into a normal group (NFD) and a model group (HFD) at the fifth week of age. The normal group was fed with ordinary maintenance feed, while the other groups were fed with high-fat feed D12492. The body weight and food intake of mice were monitored every 3 weeks. After 16 weeks of feeding, the body weights of mice in the model group and the normal group were (49.0±2.3) g and (31.0±2.0) g, respectively, and the difference between the two groups was statistically significant. […] Body weight and food intake were measured before each administration. After 3 weeks of administration, an intraperitoneal glucose tolerance test was performed. The mice were slaughtered and samples were collected 72 h after the last administration. The liver weight was recorded, and the liver pathological conditions and blood biochemical indexes of each group were tested.

[6] = 10 nmol/kg s.c. once every 3 days, D7
[7] = 10 nmol/kg s.c. once every 3 days, D10
[8] = 10 nmol/kg s.c. once every 3 days, D13
[9] = 10 nmol/kg s.c. once every 3 days, D16
[10] = 10 nmol/kg s.c. once every 3 days, D19
[11] = 10 nmol/kg s.c. once every 3 days, D22
[12] = 10 nmol/kg s.c. once every 3 days, D25
[13] = 10 nmol/kg s.c. once every 3 days, D28
[14] = after 4 weeks of administration, same dose
[15] = long-term administration 10 nmol/kg, 72 h after the last administration
[16] = long-term administration 10 nmol/kg, blood biochemical index

T1 sequence (P43220 24-463, species assumed): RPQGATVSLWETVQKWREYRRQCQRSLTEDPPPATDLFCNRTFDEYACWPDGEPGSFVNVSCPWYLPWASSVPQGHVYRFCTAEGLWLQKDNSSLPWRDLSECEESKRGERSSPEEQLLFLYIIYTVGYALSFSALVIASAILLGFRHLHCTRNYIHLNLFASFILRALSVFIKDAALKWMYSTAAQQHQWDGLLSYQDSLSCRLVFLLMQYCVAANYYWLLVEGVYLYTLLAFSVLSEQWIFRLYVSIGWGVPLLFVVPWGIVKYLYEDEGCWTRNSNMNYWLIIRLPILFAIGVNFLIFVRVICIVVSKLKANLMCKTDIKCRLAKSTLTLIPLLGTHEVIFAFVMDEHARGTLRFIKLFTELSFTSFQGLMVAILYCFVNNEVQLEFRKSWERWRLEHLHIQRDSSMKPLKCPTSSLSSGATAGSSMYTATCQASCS
T2 sequence (P47871 26-477, species assumed): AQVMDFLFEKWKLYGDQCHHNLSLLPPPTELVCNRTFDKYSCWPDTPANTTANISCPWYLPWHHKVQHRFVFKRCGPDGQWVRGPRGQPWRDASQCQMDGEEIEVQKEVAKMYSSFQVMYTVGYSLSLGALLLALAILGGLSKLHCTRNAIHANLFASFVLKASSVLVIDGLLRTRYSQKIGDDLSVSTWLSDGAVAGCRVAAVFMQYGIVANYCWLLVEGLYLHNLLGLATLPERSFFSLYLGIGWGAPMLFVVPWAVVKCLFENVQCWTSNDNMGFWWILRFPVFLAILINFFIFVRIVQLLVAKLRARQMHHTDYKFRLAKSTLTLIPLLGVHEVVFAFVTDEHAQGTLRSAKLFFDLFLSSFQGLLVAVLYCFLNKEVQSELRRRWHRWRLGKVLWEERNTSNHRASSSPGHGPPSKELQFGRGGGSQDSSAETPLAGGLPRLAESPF

## CC[C@H](C)[C@H](NC(=O)[C@H](Cc1ccccc1)NC(=O)[C@H](C)NC(=O)C(C)(C)NC(=O)[C@H](CCC(N)=O)NC(=O)[C@H](CCCNC(=N)N)NC(=O)[C@H](CCCCNC(=O)COCCOCCNC(=O)CC[C@H](NC(=O)CCCCCCCCCCCCCCCCC(=O)O)C(=O)O)NC(=O)[C@H](CCC(=O)O)NC(=O)[C@H](CC(=O)O)NC(=O)[C@H](CC(C)C)NC(=O)[C@H](CC(C)C)NC(=O)[C@@H](NC(=O)[C@H](CO)NC(=O)[C@H](Cc1ccc(O)cc1)NC(=O)[C@H](CC(=O)O)NC(=O)[C@H](CO)NC(=O)[C@@H](NC(=O)[C@](C)(Cc1ccccc1F)NC(=O)[C@@H](NC(=O)CNC(=O)[C@H](CCC(N)=O)NC(=O)C(C)(C)NC(=O)[C@@H](N)Cc1ccc(O)cc1)[C@@H](C)O)[C@@H](C)O)[C@@H](C)CC)C(=O)N[C@@H](CCC(=O)O)C(=O)N[C@@H](Cc1ccc(O)cc1)C(=O)N[C@@H](CC(C)C)C(=O)N[C@@H](CC(C)C)C(=O)N[C@@H](C)C(=O)NCC(=O)NCC(=O)N1CCC[C@H]1C(=O)N[C@@H](CO)C(=O)N[C@@H](CO)C(=O)NCC(=O)N[C@@H](C)C(=O)N1CCC[C@H]1C(=O)N1CCC[C@H]1C(=O)N1CCC[C@H]1C(=O)N[C@@H](CO)C(N)=O [HEC-PT112]
[1]
  EC50: 0.183 nM
[2]
  EC50: 0.871 nM
[3]
  EC50: 0.0534 nM
[4]
  Blood glucose level (mM) 15 min: 11.7 ± 2.6 mM
  Blood glucose level (mM) 30 min: 8.6 ± 1.9 mM
  Blood glucose level (mM) 60 min: 7.3 ± 0.7 mM
  Blood glucose level (mM) 90 min: 6.7 ± 0.6 mM
  Blood glucose level (mM) 0 min: 4.9 ± 1.3 mM
  AUC0-90 min: 726.2±82.4^a
[4]; 24 hours after a single administration, 3 nmol/kg
  improvement of glucose tolerance compared with LY3298176: improved glucose tolerance in mice better than the positive control LY3298176
[5]; [6]
  Cumulative food intake (g/pcs) D7: 5.6 g/pcs
  Weight gain rate (%) D7: -21.3±4.0%
[5]; [7]
  Cumulative food intake (g/pcs) D10: 7.8 g/pcs
  Weight gain rate (%) D10: -28.6±7.0%
[5]; [8]
  Cumulative food intake (g/each) D13: 10.6 g/each
  Weight gain rate (%) D13: -32.4±7.7%
[5]; [9]
  Cumulative food intake (g/each) D16: 15.5 g/each
  Weight gain rate (%) D16: -34.0±7.1%
[5]; [10]
  Cumulative food intake (g/each) D19: 21.0 g/each
  Weight gain rate (%) D19: -34.5±5.7%
[5]; [11]
  Cumulative food intake (g/each) D22: 26.6 g/each
  Weight gain rate (%) D22: -35.6±5.6%
[5]; [12]
  Cumulative food intake (g/each) D25: 32.3 g/each
  Weight gain rate (%) D25: -36.4±5.1%
[5]; [13]
  Cumulative food intake (g/each) D28: 39.1 g/each
  Weight gain rate (%) D28: -36.2±4.3%
[5]; 10 nmol/kg s.c. once every 3 days, D30
  Cumulative food intake (g/each) D30: 43.0^a g/each
[5]; 10 nmol/kg s.c. once every 3 days, D31
  Weight gain rate (%) D31: -35.6±4.3^a %
[5]; 10 nmol/kg s.c., D0
  Cumulative food intake (g/pcs) D0: 2.3 g/pcs
  Weight gain rate (%) D0: 0.0±0.0%
[5]; 10 nmol/kg s.c., D1
  Cumulative food intake (g/pcs) D1: 2.5 g/pcs
  Weight gain rate (%) D1: -5.4±0.9%
[5]; 10 nmol/kg s.c., D2
  Cumulative food intake (g/pcs) D2: 2.9 g/pcs
  Weight gain rate (%) D2: -8.8±0.8%
[5]; 10 nmol/kg s.c., D3
  Cumulative food intake (g/pcs) D3: 3.5 g/pcs
  Weight gain rate (%) D3: -10.6±1.0%
[5]; 10 nmol/kg s.c., D4
  Cumulative food intake (g/pcs) D4: 4.1 g/pcs
  Weight gain rate (%) D4: -12.6±1.7%
[5]; after 4 weeks of administration
  liver function and blood lipids of DIO mice: significantly improved the liver function and blood lipids
[5]; [14]
  food intake inhibition effect compared with LY3298176: certain advantages in inhibiting food intake
  weight loss effect compared with LY3298176: significantly better than that of LY3298176
[5]; [15]
  Liver index/%: 3.0±0.0^a %
  Liver/g: 0.9±0.1^a g
  Weight/g: 29.7±2.5^a g
[5]; [16]
  ALT (U/L): 25.9±6.6^a U/L
  AST (U/L): 115.3±16.2^a U/L
  CHOL (mmol/L): 3.1±0.5^a mmol/L
  TRIGL (mmol/L): 0.6±0.1^a mmol/L

## CC[C@H](C)[C@H](NC(=O)[C@H](CCCCN)NC(=O)[C@H](CC(=O)O)NC(=O)[C@H](CCCCNC(=O)COCCOCCNC(=O)CC[C@H](NC(=O)CCCCCCCCCCCCCCCCC(=O)O)C(=O)O)NC(=O)[C@H](CC(C)C)NC(=O)[C@@H](NC(=O)[C@H](CO)NC(=O)[C@H](Cc1ccc(O)cc1)NC(=O)[C@H](CC(=O)O)NC(=O)[C@H](CO)NC(=O)[C@@H](NC(=O)[C@](C)(Cc1ccccc1F)NC(=O)[C@@H](NC(=O)CNC(=O)[C@H](CCC(N)=O)NC(=O)C(C)(C)NC(=O)[C@@H](N)Cc1ccc(O)cc1)[C@@H](C)O)[C@@H](C)O)[C@@H](C)CC)C(=O)N[C@@H](C)C(=O)N[C@@H](CCC(N)=O)C(=O)NC(C)(C)C(=O)N[C@@H](C)C(=O)N[C@@H](Cc1ccccc1)C(=O)N[C@H](C(=O)N[C@@H](CCC(=O)O)C(=O)N[C@@H](Cc1ccc(O)cc1)C(=O)N[C@@H](CC(C)C)C(=O)N[C@@H](CC(C)C)C(=O)N[C@@H](CCC(=O)O)C(=O)NCC(=O)NCC(=O)N1CCC[C@H]1C(=O)N[C@@H](CO)C(=O)N[C@@H](CO)C(=O)NCC(=O)N[C@@H](C)C(=O)N1CCC[C@H]1C(=O)N1CCC[C@H]1C(=O)N1CCC[C@H]1C(=O)N[C@@H](CO)C(N)=O)[C@@H](C)CC [HEC-PT114]
[1]
  EC50: 0.12 nM
[2]
  EC50: 0.138 nM
[3]
  EC50: 0.0567 nM
[4]
  Blood glucose level (mM) 15 min: 13.5 ± 1.0 mM
  Blood glucose level (mM) 30 min: 9.8 ± 0.8 mM
  Blood glucose level (mM) 60 min: 7.9 ± 0.8 mM
  Blood glucose level (mM) 90 min: 6.3 ± 0.8 mM
  Blood glucose level (mM) 0 min: 4.9 ± 1.0 mM
  AUC0-90 min: 791.0±55.3^a
